The values below come from patent US7671258B2, “Surfactant peptide nanostructures, and uses thereof” (Massachusetts Institute of Technology, priority 2001, dated 2010).

The nature of this data set: Cryo-transmission electron microscopy of aqueous peptide solutions (self-assembly). Particulars: Cryo-TEM, aqueous solution 5 mg/ml, pH 7. Format: physicochemical. The protocol: Cryo-transmission electron microscopy experiments were performed on aqueous solution of the different peptides at a concentration of 5 mg/ml. In order to solubilize these peptides in water, it was necessary to deprotonate the carboxylic groups by adjusting the pH with a solution of sodium hydroxide 0.1N. The oligopeptides investigated start to be soluble in water at pH 5 to 6, depending on the amino acid sequence. All the experiments presented in this work were carried out using peptide solutions at pH 7. […] The cylindrical assemblers present a three-dimensional transient network somehow similar to flexible polymers in their semidilute or concentrated solutions^22. It should be pointed out that, in the electron micrographs, only a two-dimensional projection of the peptides nanotubes could be imaged. The network below and above a defined point in the space could be relatively distant in three dimensions, while appearing superimposed in the two-dimensional projection. […] These self-assemblies have high axial ratios and extend in length to several tens of micrometers. Additionally, one can easily identify many three-fold junctions or branchings connecting the nanotubes and thus forming the final network. […] Alternatively, two nanotubes could fuse together to form a tentative 4-arm branch. It has been shown that this kind of branching is energetically unstable and, thus, those observed in FIG. 3 are most likely due to the 2-D representation of a spatial network.
In fact, one can easily recognize nanotubes of about 50 nm diameter linked by an increased numbers of three-fold junction. As a result, the branches are more abundant than those observed in the samples VVVVVVD (V6D) (SEQ ID NO: 36), […] (SEQ ID NO: 38) and AAAAAAD (A6D) (SEQ ID NO: 37). They have also a smaller axial ratio and a much smaller average diameter of about 10 to 15 nm. […] (SEQ ID NO: 39) is the most hydrophobic compound with the tail constituted of six leucines. […] These molecular assemblies are very similar to threadlike micellar systems made from traditional amphiphilic molecules such as cetyltrimethylammonium bromide (CTAB)^29-30. It should be noted that a large number of vesicle-like spherical assemblies also appear in the TEM micrograph.
Cryo-TEM micrograph at high resolution provides a detailed structure of the peptide nanotubes formed by AAAAAAD (SEQ ID NO: 35) (see FIG. 4). […] Additionally, helical pitches between 150 and 200 nm, depending on the nanotubes diameter, were also observed. Similar results have been documented with hollow cylinders formed of bilayer membrane of diacetylenic lipids^31. Theories based on molecular chirality have been developed to explain the presence of helical markings that wind around the cylinders^32.

Structures are written as SMILES. Residues, ends and D or L forms follow the SMILES beside them.

With `CC(=O)N[C@@H](C)C(=O)N[C@@H](C)C(=O)N[C@@H](C)C(=O)N[C@@H](C)C(=O)N[C@@H](C)C(=O)N[C@@H](C)C(=O)N[C@@H](CC(=O)O)C(=O)N[C@@H](CC(=O)O)C(=O)O` [A6D2, [Acetyl]-AAAAAADD-CO2] (Ac-AAAAAADD-OH), the nanotube diameter result is reported as “about 50 nm”.
`CC(=O)N[C@@H](C)C(=O)N[C@@H](C)C(=O)N[C@@H](C)C(=O)N[C@@H](C)C(=O)N[C@@H](C)C(=O)N[C@@H](C)C(=O)N[C@@H](CC(=O)O)C(=O)O` [A6D, [Acetyl]-AAAAAAD-CO2] (Ac-AAAAAAD-OH): the “morphology of the self-assemblies” value is reported as “cylindrical morphologies”. The “morphology of the self-assemblies” value (listed as AAAAAAD) is on record as “hollow tubular structures”.
Take `CC(=O)N[C@@H](CC(C)C)C(=O)N[C@@H](CC(C)C)C(=O)N[C@@H](CC(C)C)C(=O)N[C@@H](CC(C)C)C(=O)N[C@@H](CC(C)C)C(=O)N[C@@H](CC(C)C)C(=O)N[C@@H](CC(=O)O)C(=O)N[C@@H](CC(=O)O)C(=O)O` [L6D2, [Acetyl]-LLLLLLDD-CO2] (Ac-LLLLLLDD-OH): the “morphology of the self-assemblies” value was “does not exhibit any nanotubular structures but rather a network of entangled rodlike micelles”.
The same measure, in the same setting: next, `CC(=O)N[C@H](C(=O)N[C@H](C(=O)N[C@H](C(=O)N[C@H](C(=O)N[C@H](C(=O)N[C@H](C(=O)N[C@@H](CC(=O)O)C(=O)N[C@@H](CC(=O)O)C(=O)O)C(C)C)C(C)C)C(C)C)C(C)C)C(C)C)C(C)C` [V6D2, [Acetyl]-VVVVVVDD-CO2] (Ac-VVVVVVDD-OH): “cylindrical morphologies”; `CC(=O)N[C@H](C(=O)N[C@H](C(=O)N[C@H](C(=O)N[C@H](C(=O)N[C@H](C(=O)N[C@H](C(=O)N[C@@H](CC(=O)O)C(=O)O)C(C)C)C(C)C)C(C)C)C(C)C)C(C)C)C(C)C` [V6D, [Acetyl]-VVVVVVD-CO2] (Ac-VVVVVVD-OH): “cylindrical morphologies”.
